# According to patent US4835157A, “Thieno- and furopyrimidine-2,4-dione piperidine derivatives as serotonin antagonists and alpha adrenergic blocking agents” (Ortho Pharmaceutical Corporation, priority 1988, dated 1989):
# Where two headings read alike, the source gives them in different places.
# Columns and labels:
# 5HT2 [1] = biological target: T1, 5HT2 (Rattus norvegicus, UniProt P14842); experiment: Brain Serotonin (5-HT2) Radioreceptor Assay (3H-ketanserin displacement, rat frontal cortex membranes); assay type: binding; design: dissected from brains obtained from female rats; from tissue; host or cells: frontal cortex of female rats (about 150 g), membrane fragments; settings: 15 min at 37° C
# T1 sequence (P14842 whole entry, the tested form may be a part): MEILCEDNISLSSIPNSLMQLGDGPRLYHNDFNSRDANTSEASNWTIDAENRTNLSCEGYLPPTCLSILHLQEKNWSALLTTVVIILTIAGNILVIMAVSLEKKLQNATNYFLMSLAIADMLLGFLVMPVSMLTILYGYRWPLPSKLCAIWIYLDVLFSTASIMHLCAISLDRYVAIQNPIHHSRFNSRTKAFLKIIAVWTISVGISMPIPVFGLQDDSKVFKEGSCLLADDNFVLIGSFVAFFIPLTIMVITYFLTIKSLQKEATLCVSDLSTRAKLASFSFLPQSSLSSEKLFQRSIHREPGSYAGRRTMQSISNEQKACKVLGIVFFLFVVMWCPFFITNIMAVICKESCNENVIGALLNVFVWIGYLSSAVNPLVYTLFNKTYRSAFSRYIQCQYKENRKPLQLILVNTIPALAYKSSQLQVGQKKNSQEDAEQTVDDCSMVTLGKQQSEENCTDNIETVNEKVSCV
# Procedure: Brain Serotonin (5-HT2) Radioreceptor Assay
# The test objects of this Example were rat frontal cortex membranes. Mebrane fragments were prepared from the frontal cortex dissected from brains obtained from female rats (≈150 g). […] Compound bound to the receptor site was separated from the remaining unbound compound by vacuum filtration. […] Specific binding was determined by the difference between total counts bound and counts bound in the presence of 10^-6 M methysergide.
# 5HT1A receptor = biological target: T2, 5HT1A receptor (Rattus norvegicus, UniProt P19327); experiment: Brain Serotonin (5HT1A) radioreceptor Assay (3H-8-OH DPAT displacement, rat frontal cortex membranes); assay type: binding; settings: for inhibition at 1 µM: read-out: Brain 5-HT1 Receptor % displaced (% inhibition)
# T2 construct: Membrane fragments were prepared from prefrontal cortex; from tissue; host or cells: prefrontal/frontal cortex of female rats (about 150 g), membrane fragments
# T2 sequence (P19327 1-422): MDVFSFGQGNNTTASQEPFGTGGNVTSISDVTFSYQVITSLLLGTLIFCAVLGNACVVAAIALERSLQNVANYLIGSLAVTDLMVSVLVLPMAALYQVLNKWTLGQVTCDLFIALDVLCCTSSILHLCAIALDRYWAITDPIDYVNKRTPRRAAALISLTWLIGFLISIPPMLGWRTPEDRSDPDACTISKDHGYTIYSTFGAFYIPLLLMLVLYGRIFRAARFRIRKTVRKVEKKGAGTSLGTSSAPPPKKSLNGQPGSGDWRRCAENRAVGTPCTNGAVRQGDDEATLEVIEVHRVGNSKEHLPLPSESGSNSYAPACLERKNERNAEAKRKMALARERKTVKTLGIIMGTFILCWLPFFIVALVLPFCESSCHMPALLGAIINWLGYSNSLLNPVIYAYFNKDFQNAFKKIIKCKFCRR
# Procedure: Brain Serotonin (5HT1A) radioreceptor Assay
# The text objects of this procedure were rat frontal cortex membranes. Membrane fragments were prepared from prefrontal cortex disected from brains obtained from female rats (≈150 g). The 5HT1A sites were labeled with ^3 H-8-OH dipropylaminotetralin (8-OH-DPAT). Membrane fragments, ^3 H-8-OH DPAT, TRIS buffer (pH 7.4) and unlabeled compound were incubated for 10 minutes at 37° C. and then for 10 minutes at 4° C. Separation of bound from unbound ^3 H-8-OH DPAT was performed by vacuum filtration on a glass fiber disc. The ability of a compound to compete with ^3 H-8-OH DPAT for binding sites is a measure of the affinity of the compound for the 5HT1A receptor. Specific binding was determined by the difference between total counts bound and the counts bound in the presence of […] 5-hydroxytryptamine.
# [2] = tested on: serotonin-induced platelet aggregation; experiment: Platelet Aggregation Assay (serotonin-induced); assay type: cell-based; settings: human plasma, serotonin 5 μM
# Procedure: Platelet Aggegation Assay
# Human blood was collected into tubes containing sodium citrate. The plasma was separated by centrifugation and was used as the source of platelets. Serotonin (5 μM) was used as the agonist to induce platelet aggregation. A control aggregation curve (as measured by the decrease in absorbance in transmitted light) was obtained in the presence of serotonin and in the absence of test compound. The test compound was added to an identical sample in a cuvette for one minute before addition of serotonin to yield the experimental curve.
# 5HT2 [3] = biological target: T1, 5HT2; experiment: 5HT2 Blockade in vivo (antagonism of 5HT induced pressor responses); design: Spontaneously hypertensive rats were anesthetized with sodium pentobarbital; from tissue; host or cells: whole animal: anesthetized spontaneously hypertensive rats (vasculature); species or system spontaneously hypertensive rats; settings: for ED50: rat, iv, read-out: 5-HT-Induced Pressor Response ED50; for 5-HT-Induced Pressor Response ED50: anesthetized SHR, 5HT 100 μg/kg i.v., cumulative doses of antagonist
# Procedure: Antagonism of 5HT induced pressor responses was used to assess 5HT2 blockade in vivo. Spontaneously hypertensive rats were anesthetized with sodium pentobarbital (50 mg/kg, i.p.). The right carotid artery and vein were cannulated for pressure recording and drug injection, respectively. The trachea was cannulated, the rat placed on a respirator and ventilated with room air at 50-60 breaths/minute. Rats were pretreated with prazosin hydrochloride (1 mg/kg, i.v., blous) and pentolinium tartrate (5 mg/kg, i.v., bolus). After 10 minutes equilibration, the rat was challenged with 5HT (100 μg/kg) which elevates mean arterial pressure (MAP) 60-100 mmHg; non-responsive rats were discarded.
# After a baseline had been reestablished, bolus injections of 5HT (100 μg/kg, i.v.) were given and the MAP responses were evaluated both pre- and post-drug administration. 5HT challenges were repeated 10 minutes after each dose of antagonist. Up to three cumulative doses of the antagonist were given to a single animal.
# [4] = tested on: alpha1 adrenergic receptor; experiment: Alpha1 Blockade in vivo (inhibition of phenylephrine pressor response); design: species or system spontaneously hypertensive rats (SHR); settings: anesthetized, vagotomized SHR; i.v.
# Procedure: The potency of these compounds as alpha1 adrenergic antagonists was determined using the following procedure: adult male spontaneously hypertensive rats (SHR) were anesthetized and bilaterally vagotomized. A carotid artery and jugular vein were cannulated for monitoring mean arterial blood pressure and drug administration, respectively. The percent inhibition of alpha1 adrenergic receptor activation was quantified by measuring pressor responses to phenylephrine before and after antagonist treatment. […] Compounds were tested to the limits of their solubility for intravenous administration.
# [5] = tested on: Serotonin-Induced Smooth Muscle Contractions (rabbit thoracic aorta); experiment: Inhibition of Serotonin-Induced Smooth Muscle Contractions (isolated thoracic aorta strips); assay type: cell-based; settings: concentration shifting the serotonin dose curve 10x to the right, 10 min preincubation, read-out: 5-HT-Induced Smooth Muscle Contraction DR10
# Procedure: Inhibition of Serotonin-Induced Smooth Muscle Contractions
# The test objects of this Example were canines and rabbits. Rabbits were sacrificed by T-61 injection and the thoracic aorta was removed immediately. The aorta was placed in warmed, oxygenated Krebs-Henseleit buffer. After the tissue was cleaned, a 2-3 mm wide strip was cut helically from each aorta. A strip of approximately 5 cm was suspended in Krebs-Henseleit buffer at 37° C. in a 25 ml tissue bath and the tissues equilibrated at an initial resting tension of 4 g for 90-120 minutes. An initial serotonin dose curve, 0.01-10 μM was then done on each tissue, followed by a 60 minute washout and reequilibration. The test drug was then added for a 10 minute preincubation and another serotonin dose curve was done using 0.01-100 μM.
# Results are expressed as DR10 values. This is the concentration of the compound required to shift the serotonin dose curve 10x to the right, i.e., the concentration of antagonist at which the concentration of serotonin required for 50% maximal contraction is increased ten-fold.
# serotonin receptors = experiment: Inhibition of 5-HTP-Induced Head Twitching; assay type: in vivo; settings: male CD1 mice; for Inhibit. of 5-HTP-Head Twitch ED50: 5-HTP 160 mg/kg i.v. after one hour
# Procedure: Inhibition of 5-HTP-Induced Head Twitching
# This test detects compounds with antagonistic activity of serotonin receptors in vivo, and is a modified procedure of Corne, Pickering and Warner, Brit. J. Pharmacol. 20, 106 (1963). Groups of male CD1 mice were fasted overnight but allowed water ad libitum. They were deprived of water during the course of the experiment. The mice were weighed and treated orally or parenterally with the test compound in a dose volume of 10 ml/kg. Doses of test substance were calculated based upon the active compound. Substances for oral administration were dissolved or suspended in a 0.5% aqueous methylcellulose (15 centipoises) vehicle containing 4 ml of Tween 80/l.
# A dose of 160 mg/kg of L-5-hydroxytryptophan (5-HTP) was administered i.v. in a dose volume of 5 ml/kg after one hour. The test mouse was restrained in a rodent restrainer that allowed the tail to extend out the back. The tail was then placed in tepid (but not scalding) water for approximately 10 seconds to soften the skin and dilate the tail vein. A 1 ml syringe and 25 gauge (5/8 inch) needle was used to administer the 5-HTP solution into one of the lateral tail veins.
# A timer was started after dosing with 5-HTP to the first animal of the test group. […] A head twitch involves the head, neck and ears and has the appearance of an exaggerated pinal reflex. The number of head twitches for each individual vehicle-treated mouse were recorded to establish a historical baseline.
# The active compounds in the test block the twitch response (the response rated all or none).
# [6] = tested on: Spontaneously Hypertensive Rats (SHR); experiment: Antihypertensive Activity in Spontaneously Hypertensive Rats (SHR); assay type: in vivo, rat; settings: @ 5 mg/kg p.o., 4 h monitoring
# Procedure: Antihypertensive Activity in Spontaneously Hypertensive Rats (SHR)
# Antihypertensive activity was assessed using the following procedure. Adult male SHR were surgically prepared with arterial cannuli under light ether anesthesia and given 60-90 minute post-surgical recovery. Mean arterial pressure (MAP) was continuously monitored via the arterial line. After baseline MAP was recorded, groups of 3-6 SHR received a single dose of drug or vehicle (0.5% methylcellulose) administered by gavage at doses of 1 to 5 mg/kg.MAP was monitored for four hours post-dosing.
# Maximal changes in MAP were reported.
SMILES,IC50 (5HT2 [1]) [µM],inhibition at 1 µM (5HT1A receptor; 3H-8-OH DPAT) [%],IC50 ([2]; Platelet) [µM],ED50 (5HT2 [3]) [mg/kg],Phenylephrine-Induced Pressor Response ED50 [4] [mg/kg],"IC (10-fold shift) ([5]; Oryctolagus cuniculus, 10 min) [µM]",Inhibit. of 5-HTP-Head Twitch ED50 (serotonin receptors),"Antihypertensive Activity, p.o., % AMAP (maximal change in mean arterial pressure) [6] [%]","IC50 (5HT1A receptor; rat frontal cortex membranes, 3H-8-OH DPAT, pH 7.4, read-out: Brain 5-HT1 Receptor IC50) [µM]","Inhibit. of 5-HTP-Head Twitch (result in words) (serotonin receptors; @ 10 (mg/kg, p.o.))",IC50 (5HT1A receptor) [µM],5-HT-Induced Pressor Response ED50 (5HT2 [3]) [mg/kg],IC (10-fold shift) [5] [nM],IC50 [2] [µM]
"CC(=O)n1c(=O)n(CCN2CCC(C(=O)c3ccc(F)cc3)CC2)c(=O)c2cscc21 [Example 11, 1-Acetyl-3-[2-[4-(4-fluorobenzoyl)piperidin-1-yl]ethyl]thieno[3,4-d]pyrimidine-2,4-dione]",0.0125,0,0.09,0.029,10.0,–,–,–,–,–,–,–,–,–
"O=c1[nH]c2cscc2c(=O)n1CCN1CCC(=C(c2ccc(F)cc2)c2ccc(F)cc2)CC1 [Example 4, 3-[2-[4-[Bis(4-fluorophenyl)methylene]piperidin-1-yl]ethyl]thieno[3,4-d]pyrimidine-2,4-dione]",0.0028,20,5.3,0.16,> 10,0.0165,"≈ 10 mg/kg, p.o.",–,–,–,–,–,–,–
"O=c1[nH]c2ccsc2c(=O)n1CCN1CCC(=C(c2ccc(F)cc2)c2ccc(F)cc2)CC1 [Example 5, 3-[2-[4-[Bis(4-fluorophenyl)methylene]piperidin-1-yl]ethyl]thieno[3,2-d]pyrimidine-2,4-dione]",0.007,3,1.8,0.017,> 10,0.1,"1.78 mg/kg, p.o.",–,–,–,–,–,–,–
"O=c1[nH]c2sccc2c(=O)n1CCN1CCC(=C(c2ccc(F)cc2)c2ccc(F)cc2)CC1 [Example 6, 3-[2-[4-[Bis(4-fluorophenyl)methylene]piperidin-1-yl]ethyl]thieno[2,3-d]pyrimidine-2,4-dione]",0.0008,24,4.5,0.23,> 3,0.00899,–,-13,–,–,–,–,–,–
"Cn1c(=O)n(CCN2CCC(C(=O)c3ccc(F)cc3)CC2)c(=O)c2cscc21 [Example 14, 3-[2-[4-(4-Fluorobenzoyl)piperidin-1-yl]ethyl]-1-methylthieno[3,4-d]pyrimidine-2,4-dione]",0.007,31,0.04,0.018,< 10,–,"2.96 mg/kg, p.o.",–,–,–,–,–,–,–
"O=C(c1ccc(F)cc1)C1CCN(CCn2c(=O)[nH]c3cscc3c2=O)CC1 [Example 10, 3-[2-[4-(4-Fluorobenzoyl)piperidin-1-yl]ethyl]thieno[3,4-d]pyrimidine-2,4-dione]",0.00033,–,0.02,0.888,< 10,0.00524,"0.63 mg/kg, p.o.",–,12,–,–,–,–,–
"O=c1[nH]c2cocc2c(=O)n1CCN1CCC(=C(c2ccc(F)cc2)c2ccc(F)cc2)CC1 [Example 9, 3-[2-[4-[Bis(4-fluorophenyl)methylene]piperidin-1-yl]ethyl]furo[3,4-d]pyrimidine-2,4-dione]",0.0042,12,6.25,0.02,> 10,0.01,–,–,–,Inact.,–,–,–,–
"O=C(c1ccc(F)cc1)C1CCN(CCn2c(=O)[nH]c3ccccc3c2=O)CC1 [Ketanserin, reference compound]",–,–,0.032,–,1.08,–,"0.67 mg/kg, p.o.",-33,–,–,24.5,0.013,–,–
"Cc1nc2sccn2c(=O)c1CCN1CCC(=C(c2ccc(F)cc2)c2ccc(F)cc2)CC1 [Ritanserin, reference compound]",–,–,–,–,5.36,–,"0.32 mg/kg, p.o.",–,–,–,–,0.008,1.0,1.2
